{
  "source": "patent US11712446B2",
  "about": "“Methods of mobilizing marrow infiltrating lymphocytes and uses thereof” (GLYCOMIMETICS, INC., priority 2017, dated 2023)",
  "format_in_all_cases": "in vivo, BALB/c mice",
  "key": {"CD8+ T cells": {"test_system": "CD8+ T cells", "assay": "Flow cytometric CD62L/CD44 phenotype of CD8+ T cells in peripheral blood and bone marrow of CT26 immune mice (MIL mobilization)", "conditions": "12 hours after final dose", "experimental": "(§1) Protocol for Detection and Mobilization of MILs in the CT-26 tumor model: GMI-1271 is a potent, small-molecule, glycomimetic antagonist of E-selectin. GMI-1359 is a potent, small-molecule glycomimetic dual antagonist, targeting E-selectin and CXCR4. The effects of inhibiting either E-selectin with GMI-1271 or E-selectin and CXCR4 with GMI-1359 on MIL mobilization was tested in BALB/c mice that had been induced to reject the syngeneic CT26 colon carcinoma via anti-CTLA-4 T cell checkpoint antibody.\nTreatment with anti-CTLA-4 for all mice implanted with CT26.WT began on Day 3. All mice were dosed intraperitoneally on Days 3, 6, 10, 13, and 17. All mice were dosed according to individual body weight on the day of treatment (0.2 mg/20 g).\nOn Day 25, mice without tumors following CTLA-4 treatment were distributed into the four “Tumor Immune” treatment groups indicated in Table 1 such that the mean body weight within each group was within 10% of the overall mean.\n(§2) Treatment for “Tumor Immune” groups 1-4 began on Day 25. The Vehicle was dosed intraperitoneally every 12 hours for 3 days (Days 25-27). GMI-1271 and GMI-1359 were dosed intraperitoneally at 40 mg/kg every 12 hours for 3 days (Days 25-27). G-CSF was dosed at 0.125 mg/kg subcutaneously every 12 hours for 3 days (Days 25-27).\nA “Nonimmune” group 5 was populated with age-matched, naive non-tumor bearing mice.\n(§3) At 12 hours after the final dose of test agents, all mice in groups 1-5 (treatment “Tumor Immune” groups 1-4 and control “Nonimmune” group 5) were euthanized for blood and bone marrow collection.\n(§4) Flow cytometric analysis was used to determine CD62L and CD44 expression on CD8+ T cells in whole blood and bone marrow samples. Secondary analysis included AH-1 Dextramer analysis on the three tissue types and IFNγ production in pooled blood and bone marrow samples. Samples were acquired using a 4 laser, 14 color Attune NxT Flow Cytometer with autosampler. CD62L and CD44 events were gated on CDS+ T cells."}, "CD8+ MILs": {"test_system": "CD8+ MILs", "assay": "IFNγ production by bone marrow CD8+ MILs following in vitro stimulation with irradiated CT-26 tumor cells or AH1", "conditions": "tumor immunized mice, 40 mg/kg IP every 12 hours for 3 days, FIG. 2", "experimental": "as §1, §2, §3\nas §4, with “CD62L and CD44 events were gated on CDS+ T cells.” left out"}, "[1]": {"test_system": "CD8+ T-cells in peripheral blood", "assay": "Percent of CD8+ lymphocytes in peripheral blood armed to produce IFNγ", "conditions": "CT26 immune mice; GMI compounds 40 mg/kg IP, G-CSF 0.125 mg/kg SC, every 12 hours for 3 days; 12 hours after final dose; FIG. 3", "experimental": "as §1, §2, §3\nas §4, with “CD62L and CD44 events were gated on CDS+ T cells.” left out"}},
  "data": [
    {"compound": "CC[C@H]1C[C@@H](C(=O)NCCNC(=O)CCOCCOCCOCCOCCOCCOCCOCCOCCOCCOCCOCCOC)C[C@@H](O[C@@H]2O[C@H](CO)[C@H](O)[C@H](O[C@@H](CC3CCCCC3)C(=O)[O-])[C@H]2NC(C)=O)[C@@H]1O[C@@H]1O[C@@H](C)[C@@H](O)[C@@H](O)[C@@H]1O.[Na+]", "note": "[GMI-1271]", "values": [
      {"measurement": "redistribution of effector memory (EM, CD62L-CD44+) CD8+ T cells", "setting": "CD8+ T cells; 40 mg/kg IP every 12 hours for 3 days, FIG. 1C", "result": "not effected"},
      {"measurement": "mobilization of naïve (CD62L+CD44−) CD8+ T cells into the peripheral blood", "setting": "CD8+ T cells; GMI compounds 40 mg/kg IP, G-CSF 0.125 mg/kg SC, every 12 hours for 3 days, FIG. 1A", "result": "mobilized"},
      {"measurement": "mobilization of central memory (CM, CD62L+CD44+) CD8+ T cells into the peripheral blood", "setting": "CD8+ T cells; GMI compounds 40 mg/kg IP, G-CSF 0.125 mg/kg SC, every 12 hours for 3 days, FIG. 1B", "result": "mobilized"},
      {"measurement": "functional activity of bone marrow CD8+ MILs (IFNγ production) after in vitro stimulation", "setting": "CD8+ MILs", "result": "primed to respond to both AH1 and whole tumor cells"},
      {"measurement": "percentage of CD8+ T-cells in peripheral blood primed to produce IFNγ", "setting": "[1]", "result": "markedly increased"}
    ]}
  ]
}
